Data from PubChem BioAssay AID1919001 (Molecular Pharmacology Branch, DTP, NCI, 2023).

Tested on: 699152-130-R-J1-PDC complex spheroid growth
Experiment: Anticancer human tumor 699152-130-R-J1-PDC patient-derived pancreatic carcinoma cell line growth inhibition [AhR]
Details: for IC50: curve of first compound; for viability, T/C: stronger effect = lower value
Outline: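 Agents were dosed in half-log steps down from roughly clinical Cmax, or from 10 microM where Cmax was unknown, alone and with AhR antagonists. Read-out: percent test/control growth of tumor spheroids containing HUVEC and MSC stromal cells.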

[1] = second compound 0.1 µM, first compound 0.0316 µM
[2] = second compound 0.1 µM, first compound 0.1 µM
[3] = second compound 0.1 µM, first compound 0.316 µM
[4] = second compound 0.1 µM, first compound 1 µM
[5] = second compound 0.1 µM, first compound 3.16 µM
[6] = second compound 0.1 µM, first compound 10 µM
[7] = second compound 0.316 µM, first compound 0.0316 µM
[8] = second compound 0.316 µM, first compound 0.1 µM
[9] = second compound 0.316 µM, first compound 0.316 µM
[10] = second compound 0.316 µM, first compound 1 µM
[11] = second compound 0.316 µM, first compound 3.16 µM
[12] = second compound 0.316 µM, first compound 10 µM
[13] = second compound 1 µM, first compound 0.0316 µM
[14] = second compound 1 µM, first compound 0.1 µM
[15] = second compound 1 µM, first compound 0.316 µM
[16] = second compound 1 µM, first compound 1 µM
[17] = second compound 1 µM, first compound 3.16 µM
[18] = second compound 1 µM, first compound 10 µM
[19] = second compound 3.16 µM, first compound 0.0316 µM
[20] = second compound 3.16 µM, first compound 0.1 µM
[21] = second compound 3.16 µM, first compound 0.316 µM
[22] = second compound 3.16 µM, first compound 1 µM
[23] = second compound 3.16 µM, first compound 3.16 µM
[24] = second compound 3.16 µM, first compound 10 µM
[25] = second compound 10 µM, first compound 0.0316 µM
[26] = second compound 10 µM, first compound 0.1 µM
[27] = second compound 10 µM, first compound 0.316 µM
[28] = second compound 10 µM, first compound 1 µM
[29] = second compound 10 µM, first compound 3.16 µM
[30] = second compound 10 µM, first compound 10 µM
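Further: compound exposure lasted 7 days after spheroids had grown for 3 days.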

Row | IC50 (second compound 0.1 µM) | IC50 (second compound 0.316 µM) | IC50 (second compound 1 µM) | IC50 (second compound 3.16 µM) | IC50 (second compound 10 µM) | Compound | viability, T/C [1] | viability, T/C [2] | viability, T/C [3] | viability, T/C [4] | viability, T/C [5] | viability, T/C [6] | viability, T/C [7] | viability, T/C [8] | viability, T/C [9] | viability, T/C [10] | viability, T/C [11] | viability, T/C [12] | viability, T/C [13] | viability, T/C [14] | viability, T/C [15] | further results
1 | 7.18 µM | 6.48 µM | 8.11 µM | 5.35 µM | < 0.0316 µM | Nc1ccccc1NC(=O)c1ccc(CNC(=O)OCc2cccnc2)cc1 + Cc1cncc(-c2nc(NCCc3c[nH]c4ccccc34)c3ncn(C(C)C)c3n2)c1 | 94.9% | 96.5% | 99.3% | 107% | 77% | 39.1% | 110% | 97.2% | 105% | 105% | 72.3% | 36.5% | 118% | 116% | 113% | viability, T/C [16]: 108%; viability, T/C [17]: 72%; viability, T/C [18]: 45.1%; viability, T/C [19]: 77.8%; viability, T/C [20]: 81.4%; viability, T/C [21]: 70.3%; viability, T/C [22]: 64.2%; viability, T/C [23]: 68.1%; viability, T/C [24]: 33.8%; viability, T/C [25]: 11.6%; viability, T/C [26]: 7.91%; viability, T/C [27]: 7.77%; viability, T/C [28]: 9.69%; viability, T/C [29]: 7.99%; viability, T/C [30]: 3.12%
2 | > 10 µM | > 10 µM | > 10 µM | > 10 µM | < 0.0316 µM | O=C(C=Cc1cccc(S(=O)(=O)Nc2ccccc2)c1)NO + Cc1cncc(-c2nc(NCCc3c[nH]c4ccccc34)c3ncn(C(C)C)c3n2)c1 | 110% | 96.5% | 102% | 117% | 98.8% | 91.3% | 114% | 96% | 101% | 112% | 101% | 82.8% | 112% | 120% | 121% | viability, T/C [16]: 109%; viability, T/C [17]: 96.6%; viability, T/C [18]: 87.5%; viability, T/C [19]: 108%; viability, T/C [20]: 105%; viability, T/C [21]: 109%; viability, T/C [22]: 86.4%; viability, T/C [23]: 81.8%; viability, T/C [24]: 79%; viability, T/C [25]: 27.2%; viability, T/C [26]: 20.6%; viability, T/C [27]: 21.4%; viability, T/C [28]: 19.4%; viability, T/C [29]: 17%; viability, T/C [30]: 10.1%
3 | > 10 µM | > 10 µM | > 10 µM | > 10 µM | < 0.0316 µM | O=C(c1cc(Cc2n[nH]c(=O)c3ccccc23)ccc1F)N1CCN(C(=O)C2CC2)CC1 + Cc1cncc(-c2nc(NCCc3c[nH]c4ccccc34)c3ncn(C(C)C)c3n2)c1 | 119% | 104% | 105% | 97.6% | 120% | 82.9% | 104% | 101% | 111% | 105% | 95.3% | 90% | 119% | 120% | 119% | viability, T/C [16]: 116%; viability, T/C [17]: 107%; viability, T/C [18]: 106%; viability, T/C [19]: 96.8%; viability, T/C [20]: 93.7%; viability, T/C [21]: 89.7%; viability, T/C [22]: 90%; viability, T/C [23]: 95.1%; viability, T/C [24]: 93.4%; viability, T/C [25]: 9.79%; viability, T/C [26]: 10.4%; viability, T/C [27]: 12.8%; viability, T/C [28]: 11.7%; viability, T/C [29]: 11.9%; viability, T/C [30]: 15.3%
